Assay results: patent US20030180893A1, “Biotransformation of biologically active compounds made of various classes of chemical substance by means of laccase and manganese peroxidase enzymes” (priority 2000, published 2003)

Tests used:
[1] = system: multiresistant S. aureus reference strain “Norddeutscher Stamm”; experiment: Agar diffusion test according to Burkhardt against multiresistant S. aureus “Norddeutscher Stamm”; type: cell-based; settings: for Size of inhibition halo: starting materials, S. aureus “Nord. Stamm”; for Inhibition halo: S. aureus “Norddeutscher Stamm”
Method: (§1) Methods: An agar diffusion test according to Burkhardt was performed (Burkhardt, F. (Ed.): Mikrobiologische Diagnostik, Georg-Thieme-Verlag Stuttgart, N.Y., 1992, p. 724). The test substances are applied to Sensi-Disc test plates (Becton Dickinson Microbiology Systems, Cockeysville, USA) in graduated concentrations. For testing, Mueller-Hinton II agar was employed in Stacker Petri dishes (Becton Dickinson Microbiology Systems, Cockeysville, USA). S. aureus strain ATCC 6538 was selected as a test strain. The seeding rate of this test strain was selected in such a way that densely arranged, nut non-confluent individual colonies developed after from 16 to 20 h of incubation. After drying the inoculated nutrient substrates, a maximum of 6 test plates is placed onto the agar surface with slight pressing. After 18+2 h of incubation at 36° C., the inhibition halos are measured. For internal quality control, the method was checked with S. aureus ATCC 25923.
Methods: The examination was effected by an agar diffusion test according to the method described in Example 13. As a test germ, the multiresistant S. aureus reference strain “Norddeutscher Stamm” (Smith Kline Beecham) was employed.

[2] = system: multiresistant coagulase-negative S. epidermidis strain 99847; experiment: Agar diffusion test according to Burkhardt against multiresistant S. epidermidis; type: cell-based
Method: as §1
Methods: The examination was effected by an agar diffusion test according to the method described in Example 13. As a test germ, the multiresistant coagulase-negative S. epidermidis strain 99847 isolated from patient material was employed.

[3] = Antimicrobial activity in the preparation examples; settings: result line of the preparation example; no test germ named
[4] = system: S. aureus strain ATCC 6538; experiment: Agar diffusion test according to Burkhardt against S. aureus ATCC 6538; type: cell-based
Method: as §1

Compound	Size of inhibition halo ([1]; 0.05 mg/disc) [mm]	Size of inhibition halo ([1]; 0.25 mg/disc) [mm]	Size of inhibition halo ([2]; starting materials, 0.25 mg/disc) [mm]	Inhibition halo ([1]; 10 μg) [mm]	Inhibition halo ([1]; 50 μg) [mm]	Inhibition halo ([1]; 125 μg) [mm]	Inhibition halo ([1]; 250 μg) [mm]	Inhibition halo ([2]; 50 μg) [mm]	Inhibition halo ([2]; 125 μg) [mm]	Inhibition halo ([2]; 250 μg) [mm]	Antimicrobial activity of the coupling product (in words) [3]	Inhibition halo ([4]; 10 μg per test plate) [mm]	Inhibition halo ([4]; 50 μg per test plate) [mm]	Inhibition halo ([4]; 125 μg per test plate) [mm]	Inhibition halo ([4]; 250 μg per test plate) [mm]	Antimicrobial activity (in words) ([4]; summary of Table 1)
O=C(NCCO)c1cc(O)ccc1O [2,5-Dihydroxy-N-(2-hydroxyethyl)benzamide, reference compound]	14	22	22	–	–	–	–	–	–	–	–	–	–	–	–	–
CC1(C)SC2C(NC(=O)C(Nc3c(O)ccc(O)c3C(=O)NCCO)c3ccc(O)cc3)C(=O)N2C1C(=O)O (stereo not shown) [Example 4]	–	–	–	10	18	22	24	18	28	30	antimicrobially active	>30	>30	>30	>30	highest antimicrobial activity
CC1(C)SC2C(Nc3cc(O)c(C(=O)NCCO)cc3O)C(=O)N2C1C(=O)O (stereo not shown) [Example 1]	–	–	–	–	16	18	20	–	–	–	antimicrobially active	12	18	22	24	–
CC1(C)SC2C(NC(=O)C(Nc3cc(O)c(C(=O)NCCO)cc3O)c3ccccc3)C(=O)N2C1C(=O)O (stereo not shown) [Example 5]	–	–	–	–	–	–	–	–	–	–	antimicrobially active	–	–	–	–	–
CC1=C(C(=O)O)N2C(=O)C(Nc3cc(O)c(C(=O)NCCO)cc3O)C2SC1 (stereo not shown) [Example 3]	–	–	–	–	20	22	24	–	24	20	antimicrobially active	–	18	22	24	–
